Assays:
Progesterone Receptor = biological target: T1, Progesterone Receptor (Homo sapiens, UniProt P06401); assay: Assay for progesterone receptor activity (CV-1 cells transduced with PRb-BacMam and MMTV-BacMam); assay type: cell-based; details: 24 h, read-out: pEC50, progesterone receptor activity (converted)
T1 construct: expressed in transfected cells; host or cells: CV-1 cells transduced with PRb-BacMam and MMTV-BacMam (luciferase reporter)
T1 sequence (P06401 1-933): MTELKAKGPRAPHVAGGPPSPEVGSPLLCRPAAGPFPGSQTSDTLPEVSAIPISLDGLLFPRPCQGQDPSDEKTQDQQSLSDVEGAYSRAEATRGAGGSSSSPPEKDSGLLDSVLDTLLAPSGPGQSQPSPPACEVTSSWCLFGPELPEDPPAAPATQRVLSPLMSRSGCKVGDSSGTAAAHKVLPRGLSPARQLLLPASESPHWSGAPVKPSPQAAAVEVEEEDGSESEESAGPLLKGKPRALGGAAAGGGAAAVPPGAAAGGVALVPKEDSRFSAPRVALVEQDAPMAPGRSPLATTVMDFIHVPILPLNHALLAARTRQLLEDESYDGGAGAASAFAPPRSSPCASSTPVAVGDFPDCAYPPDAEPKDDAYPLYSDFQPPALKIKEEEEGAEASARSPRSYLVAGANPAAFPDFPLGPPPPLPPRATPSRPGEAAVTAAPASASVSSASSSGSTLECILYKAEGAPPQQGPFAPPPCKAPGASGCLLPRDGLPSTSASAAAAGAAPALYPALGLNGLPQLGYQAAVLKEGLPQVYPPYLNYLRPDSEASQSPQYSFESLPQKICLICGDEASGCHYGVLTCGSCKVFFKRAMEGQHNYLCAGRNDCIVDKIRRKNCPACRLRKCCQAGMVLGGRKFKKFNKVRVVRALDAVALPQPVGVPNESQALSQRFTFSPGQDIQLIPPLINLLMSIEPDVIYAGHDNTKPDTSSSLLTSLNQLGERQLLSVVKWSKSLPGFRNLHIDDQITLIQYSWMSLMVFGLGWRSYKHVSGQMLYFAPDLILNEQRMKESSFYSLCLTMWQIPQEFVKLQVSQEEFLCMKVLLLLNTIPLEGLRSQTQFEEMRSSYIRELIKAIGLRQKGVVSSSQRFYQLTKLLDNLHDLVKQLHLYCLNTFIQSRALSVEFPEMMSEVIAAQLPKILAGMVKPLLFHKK
Protocol: A T225 flask of CV-1 cells at a density of 80% confluency was washed with PBS, detached from the flask using 0.25% trypsin and counted using a Sysmex KX-21N. Cells were diluted in DMEM containing 10% Hyclone, 2 mM […] and 1% Pen/Strep at 140 cells/μl and transduced with 10% PRb-BacMam and 10% MMTV-BacMam. […] of suspension cells were dispensed to each well of white Nunc 384-well plates, containing compounds at the required concentration. After 24 h 10 μl of Steady Glo were added to each well of the plates. Plates were incubated in the dark for 10 min before reading them on a Viewlux reader. Dose response curves were constructed from which pEC50 values were estimated.

NFkB activity = assay: Glucocorticoid mediated transrepression of NFkB activity (A549 cells, ELAM promoter alkaline phosphatase reporter, TNFα stimulated); assay type: cell-based; details: Homo sapiens, A549, 16 h, Human A549 lung epithelial cells, 3 ng/ml human recombinant TNFα, read-out: pEC50, transrepression of NFkB activity (converted)
Description: Human A549 lung epithelial cells were engineered to contain a secreted placental alkaline phosphatase gene under the control of the distal region of the NFkB dependent ELAM promoter as previously described in Ray, K. P., Farrow, S., Daly, M., Talabot, F. and Searle, N. “Induction of the E-selectin promoter by interleukin 1 and tumour necrosis factor alpha, and inhibition by glucocorticoids” Biochemical Journal (1997) 328: 707-15.
Compounds were solvated and diluted in DMSO, and transferred directly into assay plates such that the final concentration of DMSO was 0.7%. Following the addition of cells (40K per well), plates were incubated for 1 hr prior to the addition of 3 ng/ml human recombinant TNFα. Following continued incubation for 16 hr, alkaline phosphatase activity was determined by measuring the change in optical density at 405 nm with time following the addition of 0.7 volumes of assay buffer (1 mg/ml p-nitrophenylphosphate dissolved in 1M diethanolamine, 0.28M NaCl, 0.5 mM MgCl2). Dose response curves were constructed from which EC50 values were estimated.

| EC50 (Progesterone Receptor) | EC50 (NFkB activity) | SMILES |
| --- | --- | --- |
| > 10 µM | – | COc1ccc(F)cc1C(C)(C)CC(O)(CNc1cc(C)cc2c1cnn2-c1ccccc1)C(F)(F)F (single isomer, unassigned) [Example 15-A, 1,1,1-Trifluoro-4-[5-fluoro-2-(methyloxy)phenyl]-4-methyl-2-{[(6-methyl-1-phenyl-1H-indazol-4-yl)amino]methyl}-2-pentanol] |
| > 10 µM | – | COc1ccc(F)cc1C(C)(C)CC(O)(CNc1cc(C)cc2c1cnn2-c1ccc(F)cc1)C(F)(F)F (single isomer, unassigned) [Example 26-A, 1,1,1-Trifluoro-4-[5-fluoro-2-(methyloxy)phenyl]-2-({[1-(4-fluorophenyl)-6-methyl-1H-indazol-4-yl]amino}methyl)-4-methyl-2-pentanol] |
| > 10 µM | – | CCOC(=O)c1cccc(-n2ncc3c(NCC(O)(CC(C)(C)c4cc(F)ccc4OC)C(F)(F)F)cccc32)c1 (single isomer, unassigned) [Example 6-A, Ethyl 3-(4-{[4-[5-fluoro-2-(methyloxy)phenyl]-2-hydroxy-4-methyl-2-(trifluoromethyl)pentyl]amino}-1H-indazol-1-yl)benzoate] |
| > 10 µM | – | COc1ccc(F)cc1C(C)(C)CC(O)(CNc1cc(C)cc2c1cnn2-c1ccc(F)cc1F)C(F)(F)F (single isomer, unassigned) [Example 16-B, 2-({[1-(2,4-Difluorophenyl)-6-methyl-1H-indazol-4-yl]amino}methyl)-1,1,1-trifluoro-4-[5-fluoro-2-(methyloxy)phenyl]-4-methyl-2-pentanol] |
| > 10 µM | – | COc1ccc(F)cc1C(C)(C)CC(O)(CNc1cccc2c1cnn2-c1ccc(F)cc1F)C(F)(F)F (single isomer, unassigned) [Example 4-A, 2-({[1-(2,4-Difluorophenyl)-1H-indazol-4-yl]amino}methyl)-1,1′-trifluoro-4-[5-fluoro-2-(methyloxy)phenyl]-4-methyl-2-pentanol] |
| > 10 µM | < 0.00316 µM | COc1ccc(F)cc1C(C)(C)CC(O)(CNc1cccc2c1cnn2-c1ccccc1)C(F)(F)F (racemic) [Example 7, 1,1,1-Trifluoro-4-[5-fluoro-2-(methyloxy)phenyl]-4-methyl-2-{[(1-phenyl-1H-indazol-4-yl)amino]methyl}-2-pentanol] |
| > 10 µM | – | COc1ccc(F)cc1C(C)(C)CC(O)(CNc1cc(C)cc2c1cnn2-c1ccccc1F)C(F)(F)F (single isomer, unassigned) [Example 25-B, 1,1,1-Trifluoro-4-[5-fluoro-2-(methyloxy)phenyl]-2-({[1-(2-fluorophenyl)-6-methyl-1H-indazol-4-yl]amino}methyl)-4-methyl-2-pentanol] |
| > 10 µM | < 0.00316 µM | COc1ccc(-n2ncc3c(NCC(O)(CC(C)(C)c4cc(F)ccc4OC)C(F)(F)F)cccc32)cc1 (racemic) [Example 3, 1,1,1-Trifluoro-4-[5-fluoro-2-(methyloxy)phenyl-4-methyl-2-({1-[4-(methyloxy)phenyl]-1H-indazol-4-yl}amino)methyl]-2-pentanol] |
| > 10 µM | < 0.00316 µM | COc1ccc(F)cc1C(C)(C)CC(O)(CNc1cccc2c1cnn2-c1ccncc1)C(F)(F)F (racemic) [Example 5, 1,1,1-Trifluoro-4-[5-fluoro-2-(methyloxy)phenyl]-4-methyl-2-({[1-(4-pyridinyl)-1H-indazol-4-yl]amino}methyl)-2-pentanol] |
| > 10 µM | – | Cc1cc(NCC(O)(CC(C)(C)c2cc(F)ccc2O)C(F)(F)F)c2cnn(-c3cccc(O)c3)c2c1 (single isomer, unassigned) [Example 24-A, 4-Fluoro-2-[4,4,4-trifluoro-3-hydroxy-3-({[1-(3-hydroxyphenyl)-6-methyl-1H-indazol-4-yl]amino}methyl)-1,1-dimethylbutyl]phenol] |
| > 10 µM | – | COc1ccc(F)cc1C(C)(C)CC(O)(CNc1cccc2c1cnn2-c1ccc(F)cc1)C(F)(F)F (single isomer, unassigned) [Example 2-A, 1,1,1-Trifluoro-4-[5-fluoro-2-(methyloxy)phenyl]-2-({[1-(4-fluorophenyl)-1H-indazol-4-yl]amino}methyl)-4-methyl-2-pentanol] |
